What all share (format): cell-based, mouse
For experiment [1], the system named is β-galactosidase in CMV-LacZ C2C12 myotubes. Briefly: CMV-LacZ secondary screen in C2C12 myotubes (β-Gal stabilizing assay). The settings on record: for CMV-LACZ in Myotubes, signal relative to DMSO: C2C12 CMV-LacZ myotubes, fold relative to DMSO; for CMV-LACZ in Myotubes (β-galactosidase activity relative to DMSO): CMV-LacZ C2C12 myotubes, 96-well format. The gist of the method: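 A secondary screen identifies compounds that stabilize β-gal independently of the native promoter, using CMV-LacZ C2C12 cells. Curves span 0.5–40 μM at six levels, in duplicate.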

Experiment [2] has as its system α7 integrin (LacZ reporter in α7+/LacZ myotubes). Briefly: Myotube α7 integrin FDG assay (Burkin assay in myotubes, 96-well). The note with it: myotubes.
In experiment [3] the test system is α7 integrin (LacZ reporter in α7βgal+/− myoblasts). The experiment is described as follows: Myoblast α7+/LacZ integrin FDG assay (Burkin assay in myoblasts, 96-well). The settings on record: α7+/LacZ myoblasts, 96-well.

As for `COC(=O)c1ccccc1NC(=O)c1cc[n+]([O-])cc1` [MLS001167169-01], the “CMV-LACZ in Myotubes, signal relative to DMSO” value came to 0.9323 in experiment [1] (5 uM), 1.009 in experiment [1] (10 uM), 1.085 in experiment [1] (20 uM) and 1.103 in experiment [1] (40 uM). Besides, the “Burkin Assay in Myotubes, α7 integrin LacZ reporter signal relative to DMSO” value amounted to 0.8925 in experiment [2] (0.5 uM); 0.9375 in experiment [2] (1 uM); 1.041 in experiment [2] (5 uM); 0.9696 in experiment [2] (10 uM); 1.3902 in experiment [2] (20 uM); 0.6262 in experiment [2] (40 uM). In addition, the “Burkin Assay in Myoblasts, signal relative to DMSO” value was 1.032 in experiment [3] (0.5 uM); 0.8858 in experiment [3] (1 uM); 0.9547 in experiment [3] (5 uM); 0.9378 in experiment [3] (10 uM); 0.8133 in experiment [3] (20 uM); 0.9062 in experiment [3] (40 uM).
Take `CN(C)S(=O)(=O)c1cccc(C(=O)Nc2ccc3c(c2)CCC3)c1` [MLS001176611-01]: the “CMV-LACZ in Myotubes (β-galactosidase activity relative to DMSO)” value in experiment [1] (5 uM) stood at 0.9287; in experiment [1] (10 uM), 1.235; in experiment [1] (20 uM), 1.034; in experiment [1] (40 uM), 0.785. Also, the “Burkin Assay in Myotubes (signal relative to DMSO)” value came out at 0.9506 in experiment [2] (0.5 uM); 0.6671 in experiment [2] (1 uM); 1.066 in experiment [2] (5 uM); 0.9301 in experiment [2] (10 uM); 0.9665 in experiment [2] (20 uM); 0.9846 in experiment [2] (40 uM). Besides, the “Burkin Assay in Myoblasts, value relative to DMSO” value in experiment [3] (0.5 uM) amounted to 1.049; in experiment [3] (1 uM) it was 0.994; in experiment [3] (5 uM) it was 1.097; in experiment [3] (10 uM) it was 1.072; in experiment [3] (20 uM), 0.8398; in experiment [3] (40 uM) it was 0.9134.
In the case of `O=C(NC1CCCC1)c1ccc(CS(=O)(=O)Cc2ccccc2F)o1` [MLS001030746-01], the “CMV-LACZ in Myotubes (β-galactosidase activity relative to DMSO)” value was found to be 0.9791 in experiment [1] (5 uM), 0.8757 in experiment [1] (10 uM), 1.098 in experiment [1] (20 uM) and 0.9912 in experiment [1] (40 uM). In addition, the “Burkin Assay in Myotubes (signal relative to DMSO)” value was 1.047 in experiment [2] (0.5 uM); 0.9692 in experiment [2] (1 uM); 1.031 in experiment [2] (5 uM); 0.9496 in experiment [2] (10 uM); 0.9886 in experiment [2] (20 uM); 1.067 in experiment [2] (40 uM). In addition, the “Burkin Assay in Myoblasts, value relative to DMSO” value in experiment [3] (0.5 uM) came to 0.9195; in experiment [3] (1 uM) it was 0.8373; in experiment [3] (5 uM), 1.069; in experiment [3] (10 uM) it was 1.073; in experiment [3] (20 uM), 0.9338; in experiment [3] (40 uM) it was 0.9637.
